Experiments:
progesterone activity = assay: anti-progesterone activity (applicant's finding); conditions: evidenced by antifertility activity, anti-progesterone assay and inhibition of growth of T47D and MCF-7 cell lines; no data given
progesterone receptor = biological target: T1, progesterone receptor (Homo sapiens, UniProt P06401); conditions: as reported by DeLuca and coworkers; cited from earlier work
T1 sequence (P06401 1-933): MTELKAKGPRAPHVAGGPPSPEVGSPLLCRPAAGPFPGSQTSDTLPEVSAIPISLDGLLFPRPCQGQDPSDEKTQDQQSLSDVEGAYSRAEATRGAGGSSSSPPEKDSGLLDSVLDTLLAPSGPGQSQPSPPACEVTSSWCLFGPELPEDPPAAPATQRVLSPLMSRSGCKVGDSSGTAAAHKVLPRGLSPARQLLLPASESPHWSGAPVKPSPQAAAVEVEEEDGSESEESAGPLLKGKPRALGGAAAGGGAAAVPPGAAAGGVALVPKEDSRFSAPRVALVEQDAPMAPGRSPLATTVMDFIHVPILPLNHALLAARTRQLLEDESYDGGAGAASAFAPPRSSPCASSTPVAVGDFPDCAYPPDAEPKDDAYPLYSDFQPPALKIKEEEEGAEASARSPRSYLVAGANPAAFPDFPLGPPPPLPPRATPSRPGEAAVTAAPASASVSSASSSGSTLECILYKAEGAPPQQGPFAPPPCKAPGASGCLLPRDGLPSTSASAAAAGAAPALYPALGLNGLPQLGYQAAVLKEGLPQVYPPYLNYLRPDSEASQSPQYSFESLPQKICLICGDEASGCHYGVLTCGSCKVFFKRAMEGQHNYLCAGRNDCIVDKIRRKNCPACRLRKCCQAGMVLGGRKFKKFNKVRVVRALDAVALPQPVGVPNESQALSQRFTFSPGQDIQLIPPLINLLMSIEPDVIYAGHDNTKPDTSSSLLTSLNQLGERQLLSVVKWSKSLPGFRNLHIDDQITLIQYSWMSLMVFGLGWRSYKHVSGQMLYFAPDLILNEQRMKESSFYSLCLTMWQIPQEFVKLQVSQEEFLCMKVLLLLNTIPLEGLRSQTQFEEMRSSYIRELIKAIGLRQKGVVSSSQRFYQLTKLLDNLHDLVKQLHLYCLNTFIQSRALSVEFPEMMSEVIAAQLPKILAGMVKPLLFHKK

[1] = test system: human breast cancer cells (T47D); conditions: Endocrine Society 1994 Abstract No. 1744; cited from earlier work
glutocorticoid receptor = biological target: T2, glutocorticoid receptor (Homo sapiens, UniProt P04150); conditions: in contrast to RU 486; literature report; cited from earlier work
T2 sequence (P04150 1-777): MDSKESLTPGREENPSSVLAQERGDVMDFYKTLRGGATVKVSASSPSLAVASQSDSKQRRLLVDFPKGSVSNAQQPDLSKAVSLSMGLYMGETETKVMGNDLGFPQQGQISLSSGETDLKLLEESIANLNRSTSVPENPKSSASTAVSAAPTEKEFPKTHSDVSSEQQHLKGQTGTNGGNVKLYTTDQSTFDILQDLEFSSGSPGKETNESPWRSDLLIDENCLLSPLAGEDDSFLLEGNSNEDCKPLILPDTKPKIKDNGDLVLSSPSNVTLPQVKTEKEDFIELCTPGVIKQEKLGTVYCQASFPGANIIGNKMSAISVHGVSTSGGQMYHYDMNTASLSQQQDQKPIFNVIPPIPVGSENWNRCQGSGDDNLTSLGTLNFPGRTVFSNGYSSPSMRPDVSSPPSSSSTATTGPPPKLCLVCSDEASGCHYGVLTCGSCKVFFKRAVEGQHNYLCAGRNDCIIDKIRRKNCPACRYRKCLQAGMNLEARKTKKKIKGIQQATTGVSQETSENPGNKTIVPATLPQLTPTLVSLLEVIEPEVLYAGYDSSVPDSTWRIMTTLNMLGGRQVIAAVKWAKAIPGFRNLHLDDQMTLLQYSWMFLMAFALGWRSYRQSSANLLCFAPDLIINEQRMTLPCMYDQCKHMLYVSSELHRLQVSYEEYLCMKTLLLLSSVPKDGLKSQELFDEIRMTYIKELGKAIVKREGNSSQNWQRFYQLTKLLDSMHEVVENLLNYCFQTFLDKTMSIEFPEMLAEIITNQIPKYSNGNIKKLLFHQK

C=C1C(=CC=C2CCCC3(C)C(C(C)=O)CCC23)CC(O)CC1O (stereo not drawn) [1α-Hydroxy-20-oxopregna-calciferol, 1α,3β-Dihydroxy-20-oxo-9,10-secopregna-5(Z),7,10(19)-triene]
antagonism of progesterone activity (progesterone activity): anti-progestational activity
ability to bind to the progesterone receptor (progesterone receptor): not to have such binding effect

C=C1CC[C@H](O)C/C1=C/C=C1\CCC[C@@]2(C)[C@@H](C(C)=O)CC[C@H]12 [20-oxopregnacalciferol]
suppression of in vitro growth of human breast cancer cells (T47D) [1]: suppress in vitro growth
binding to the glucocorticoid receptor (glutocorticoid receptor): not to bind
